Test results taken from patent US20050058745A1, “Use of Labiatae herb preparations for extending the flavor shelf life of malt beverages” (priority 2003, published 2005).

Assays:
[1] = Trained panel flavor evaluation, light beer, forced aging; conditions: 5 ppm, 6 days 32° C.; for preservation of fresh flavor (words): light beer
Method: Separate solution of pure rosmarinic acid, pure carnosol and pure carnosic acid were prepared in ethanol as previously.
The light beer used in this study was approximately one month old and was purchased at a local market. Bottle additions were done as in Example 1.
The bottles were placed in a heated room at 32±1° C. in the dark. After the allotted aging time, the bottles of beer were transferred to a dark refrigerator and stored at approximately 2° to 4° C. until they were analyzed. Additional bottles from the same code were kept unopened in 2° to 4° C. storage. These unopened samples from the same beer code were labeled “Fresh Control” used to provide fresh samples for the trained panel.
At the appropriate times, a trained 7-member panel evaluated the beers. […] Five beers were evaluated at the session—Fresh Control, Aged No Addition, and Aged containing each one of the Labiatae treatments. The overall preference rank, the character and intensity of the aroma, the levels of paper/cardboard aroma and flavor, sour or off flavors, hang and astringency and bitterness quality and intensity were evaluated.

[2] = Blind sensory triangle panels, model citrus beverage
Method: Carbon filtered water was carbonated to 3.5 to 4 times the volume of beer. 59.2 ml of syrup was added to each 355 ml bottle. Each bottle was individually dosed with the treatments listed in Table 22 by adding 1.775 mL of a 1% (weight/volume) solution of carnosol or rosmarinic acid in ethanol to give 50 ppm of each. The bottle was filled to approximately 355 ml with carbonated water before it was capped and inverted. Fresh samples were stored in the refrigerator (0° C.). Heat exposed samples were aged in the oven (32° C.) for seven days. […] Each panel was balanced, with half of the panel given control as the odd sample, the other half of the panel given a treated sample as the odd sample. Panelists were allowed to drink water during the panel.

[3] = Haze formation in aged beer (Haze Meter); assay type: physicochemical; conditions: for Haze: 20 ppm (RA + CA: 10 ppm each); for effect on rate of haze formation: aged beer exposed to air
Method: The highly hopped beer from example 2 was treated with solutions of carnosic acid in ethanol, rosmarinic acid in ethanol or a mixture of carnosic acid and rosmarinic acid in ethanol as done previously. The preparations were: • 1. “Fresh”, in which the beer remained unopened and was stored in the cold room at 2-4° C. • 2. “20 ppm CA” in which bottles were opened and 20 ppm carnosic acid was added from a 2% solution of pure CA ([…] of the 2% solution). The bottles were fobbed to exclude air and crowned. • 3. “20 ppm CA+air” in which bottles were opened and 20 ppm CA added as above. These bottles received two puffs of air in the remaining headspace from a 25 mL bulb. They were crowned without fobbing • 4. “20 ppm RA” in which bottles were opened and 20 ppm rosmarinic acid added from a 2% solution. The bottles were fobbed and crowned. • 5. “20 ppm RA+air” which was done as in No. 4, with 20 ppm RA added. These bottles received the two puffs of air and were crowned without fobbing. • 6. “10 ppm RA+10 ppm CA” in which bottles were opened and 10 ppm each of carnosic and rosmarinic acids were added from pure solutions (178 μL of 2% solution per 12 oz bottle). Bottles were fobbed and crowned. • 7. “10 ppm RA+10 ppm CA+air” in which 10 ppm each of RA and CA was added. This treatment received two puffs of air and was not fobbed before closing. • 8. “Control+air” in which bottles were opened, given two puffs of air and crowned without fobbing. • 9. “Control” in which bottles were opened, fobbed and crowned.
The samples prepared in Example 18 were analyzed for haze in the following manner. A clean, dry, clear flint bottle was marked with a permanent mark on the neck for aligning the bottle the same way for each measurement. The bottle was filled with distilled water to the bottom of the neck and aligned in a Haze Meter with the alignment mark facing forward (Haze Meter, Type UKM1d, Radiometer Copenhagen) to zero the instrument. The bottle was emptied and then filled with a degassed beer sample to be tested and the haze was recorded in ASBC Formazin units.

[4] = DCIP redox potential of mash (first wort); assay type: physicochemical; conditions: for Redox: 20 ppm in mash (20 mg/kg of mash), first wort
[5] = Phenylacetaldehyde in headspace of aged beer; assay type: physicochemical; conditions: for Phenylacetaldehyde in the headspace of aged beer: 20 ppm (RA + CA: 10 ppm each); for effect on formation of phenylacetaldehyde and 3-methylbutanal: aged beer, 40° C.
Method: The highly hopped beer from example 2 was treated with solutions of carnosic acid in ethanol, rosmarinic acid in ethanol or a mixture of carnosic acid and rosmarinic acid in ethanol as done previously. […] The bottles were fobbed to exclude air and crowned. • 3. “20 ppm CA+air” in which bottles were opened and 20 ppm CA added as above. These bottles received two puffs of air in the remaining headspace from a 25 mL bulb. They were crowned without fobbing • 4. “20 ppm RA” in which bottles were opened and 20 ppm rosmarinic acid added from a 2% solution. The bottles were fobbed and crowned. • 5. “20 ppm RA+air” which was done as in No. 4, with 20 ppm RA added. These bottles received the two puffs of air and were crowned without fobbing. • 6. “10 ppm RA+10 ppm CA” in which bottles were opened and 10 ppm each of carnosic and rosmarinic acids were added from pure solutions (178 μL of 2% solution per 12 oz bottle). Bottles were fobbed and crowned. • 7. “10 ppm RA+10 ppm CA+air” in which 10 ppm each of RA and CA was added. This treatment received two puffs of air and was not fobbed before closing. • 8. “Control+air” in which bottles were opened, given two puffs of air and crowned without fobbing. • 9. “Control” in which bottles were opened, fobbed and crowned. Treatments 2 through 9 were stored in a 40° C. hot room. At various times, bottles were opened and samples analyzed for phenylacetaldehyde and 3-methylbutanal by the method of “[…], et al. The results are shown in Table 19.

[6] = Aged Control vs. Aged treated (32° C., seven days), 50 ppm (CA + RA: 50 ppm each)
[7] = Fresh Control vs. Fresh treated, 50 ppm

| Compound | panelists' preference for treated sample over Aged No Addition sample [1] | preservation of fresh flavor (words) [1] | Correct Panelists/Total Panelists (triangle test) [2, 6] | Correct Panelists/Total Panelists (triangle test) [2, 7] | Haze ([3]; Day 0, 40° C., + air) | Haze ([3]; Day 0, 40° C., no air) | Haze ([3]; Day 3, 40° C., + air) | Haze ([3]; Day 3, 40° C., no air) | Haze ([3]; Day 7, 40° C., + air) | Haze ([3]; Day 7, 40° C., no air) | Haze ([3]; Day 14, 40° C., + air) | Haze ([3]; Day 14, 40° C., no air) | Haze ([3]; Day 21, 40° C., + air) | Haze ([3]; Day 21, 40° C., no air) | Haze ([3]; Day 35, 40° C., + air) | Haze ([3]; Day 35, 40° C., no air) | effect on rate of haze formation [3] | Redox [4] | Phenylacetaldehyde in the headspace of aged beer ([5]; Day 0, 40° C., + air) | Phenylacetaldehyde in the headspace of aged beer ([5]; Day 0, 40° C., no air) | further results |
| --- | --- | --- | --- | --- | --- | --- | --- | --- | --- | --- | --- | --- | --- | --- | --- | --- | --- | --- | --- | --- | --- |
| CC(C)c1cc2c(c(O)c1O)[C@@]1(C(=O)O)CCCC(C)(C)[C@@H]1CC2 [CA, carnosic acid] | 7 of 7 panelists preferred | very significantly retards the rate of staling | 9/21 | 9/20 | 40 ASBC Formazin Units | 40 ASBC Formazin Units | 45 ASBC Formazin Units | 30 ASBC Formazin Units | 50 ASBC Formazin Units | 35 ASBC Formazin Units | 80 ASBC Formazin Units | 45 ASBC Formazin Units | 120 ASBC Formazin Units | 75 ASBC Formazin Units | 800 ASBC Formazin Units | 110 ASBC Formazin Units | dramatic positive effect on reducing the rate of haze formation | 17.3 | 30.49 Parts per million | 32.76 Parts per million | enhancing effect on redox potential of mash relative to RA ([4]; 20 ppm): less by about half the effect seen with RA; Phenylacetaldehyde in the headspace of aged beer ([5]; Day 3, 40° C., + air): 42.05 Parts per million; Phenylacetaldehyde in the headspace of aged beer ([5]; Day 3, 40° C., no air): 46.34 Parts per million; Phenylacetaldehyde in the headspace of aged beer ([5]; Day 7, 40° C., + air): 63.82 Parts per million; Phenylacetaldehyde in the headspace of aged beer ([5]; Day 7, 40° C., no air): 57.39 Parts per million; Phenylacetaldehyde in the headspace of aged beer ([5]; Day 14, 40° C., + air): 25.74 Parts per million; Phenylacetaldehyde in the headspace of aged beer ([5]; Day 14, 40° C., no air): 24.75 Parts per million; Phenylacetaldehyde in the headspace of aged beer ([5]; Day 21, 40° C., + air): 88.86 Parts per million; Phenylacetaldehyde in the headspace of aged beer ([5]; Day 21, 40° C., no air): 52.94 Parts per million; effect on formation of phenylacetaldehyde and 3-methylbutanal [5]: dramatic effect in decreasing the formation of these off-flavor compounds |
| O=C(/C=C/c1ccc(O)c(O)c1)O[C@H](Cc1ccc(O)c(O)c1)C(=O)O [RA, rosmarinic acid] | 7 of 7 panelists preferred | very significantly retards the rate of staling | 12/20 | 10/22 | 37 ASBC Formazin Units | 37 ASBC Formazin Units | 32 ASBC Formazin Units | 40 ASBC Formazin Units | 40 ASBC Formazin Units | 35 ASBC Formazin Units | 100 ASBC Formazin Units | 40 ASBC Formazin Units | 175 ASBC Formazin Units | 55 ASBC Formazin Units | 800 ASBC Formazin Units | 120 ASBC Formazin Units | dramatic positive effect on reducing the rate of haze formation | 38.8 | 50.16 Parts per million | 43.6 Parts per million | Correct Panelists/Total Panelists (triangle test) ([2]; Fresh Control vs. Aged treated (32° C., seven days), 50 ppm (CA + RA: 50 ppm each)): 12/21; difference from untreated samples detected by triangle panel ([2]; aged for 7 days): significant difference with a 95% confidence level; Phenylacetaldehyde in the headspace of aged beer ([5]; Day 3, 40° C., + air): 48.83 Parts per million; Phenylacetaldehyde in the headspace of aged beer ([5]; Day 3, 40° C., no air): 45.83 Parts per million; Phenylacetaldehyde in the headspace of aged beer ([5]; Day 7, 40° C., + air): 66.68 Parts per million; Phenylacetaldehyde in the headspace of aged beer ([5]; Day 7, 40° C., no air): 46.01 Parts per million; Phenylacetaldehyde in the headspace of aged beer ([5]; Day 14, 40° C., + air): 55.65 Parts per million; Phenylacetaldehyde in the headspace of aged beer ([5]; Day 14, 40° C., no air): 52.71 Parts per million; Phenylacetaldehyde in the headspace of aged beer ([5]; Day 21, 40° C., + air): 68.89 Parts per million; Phenylacetaldehyde in the headspace of aged beer ([5]; Day 21, 40° C., no air): 52.14 Parts per million; effect on formation of phenylacetaldehyde and 3-methylbutanal [5]: dramatic effect in decreasing the formation of these off-flavor compounds |
